# According to US20040242547A1, “Arylazo-substituted imidazole for the treatment of stress urinary incontinence” (priority 2001, published 2004):
# Key:
# [1] = test system: human mesenteric arteries; assay: Agonist potency on human mesenteric artery sections (isometric tension, organ bath); format: cell-based; conditions: for EC50 / mean maximum contraction: human mesenteric arteries; for EC50: endothelium removed, cocaine 10 μM, corticosterone 10 μM, propanolol 1 μM present, read-out: pEC50 (increase in developed tension) (converted); for mean maximum contraction: for the imidazole the maximum occurred at 20 micromolar
# Protocol: (§1) Determinations were made of agonist potency on human LUT and blood vessel smooth muscle. Tissue sources: human lower urinary tract smooth muscle strips (prostatic/urethral) were obtained from patients undergoing transurethral resection of the prostate procedure for benign prostatic hyperplasia. Human mesenteric arteries (500-750 μm internal diameter) were obtained from patients undergoing bowel resection for carcinoma. Tissues were preserved in Krebs-bicarbonate solution at 4° C. from the time of surgery until used in functional experiments within 24 hours. Sections of mesenteric artery (5 mm in length) were set up between stainless steel stirrups after removal of the endothelium by gentle rubbing. Strips of prostatic/urethral smooth muscle (3×10 mm) and the mesenteric arteries were set up under 1 g resting tension in Krebs solution of composition (mM): NaCl 118.4; KCl 4.7; CaCl2 1.9; NaHCO3 25.0; MgSO4 1.2; KH2PO4 1.2; glucose 11.7, gassed with 5% CO2 in O2 and maintained at 37° C. The tension developed by all tissues was measured by means of isometric force transducers (Lectromed UFI 57G sensitivity) and recorded to computer via a Cambridge Electronic Design 1401 analogue to digital converter, using CHART software. Tissues were equilibrated for 60 minutes with several changes of bathing medium prior to starting drug administrations. All experiments were performed in the presence of cocaine (10 μM) and corticosterone (10 μM), to prevent neuronal and extraneuronal uptake of drugs, and propanolol (1 μM), to block B adrenoreceptors. Cumulative concentration-response curves were obtained to 2-[(5-chloro-2-methoxyphenyl)azo]-1H-imidazole, and to noradrenaline for comparison. For the mesenteric artery preparations following the recording of the final drug response to 2-[(5-chloro-2-methoxyphenyl)azo]-1H-imidazole, a supramaximal concentration of noradrenaline was added as a further test for partial agonism. Increases in developed tension to agonist were plotted and individual EC50 values were determined. From these, pEC50 (negative log of the EC50) values were determined for each experiment and where appropriate mean values of these with standard error of the means calculated.
# [2] = test system: human lower urinary tract smooth muscle strips (prostatic/urethral); assay: Agonist potency on human lower urinary tract smooth muscle strips (isometric tension, organ bath); format: cell-based; conditions: for EC50 / Emax: human LUT strips; for EC50: cocaine 10 μM, corticosterone 10 μM, propanolol 1 μM present, read-out: pEC50 (increase in developed tension) (converted); for Emax: relative to 100 mM potassium chloride, read-out: maximum response equivalent to % of the response to 100 mM potassium chloride
# Protocol: as §1, with “For the mesenteric artery preparations following the recording of the final drug response to 2-[(5-chloro-2-methoxyphenyl)azo]-1H-imidazole, a supramaximal concentration of noradrenaline was added as a further test for partial agonism.” left out
Structure (SMILES),agonist character compared with noradrenaline ([1]; human blood vessels (mesenteric arteries)),EC50 [1] [µM],mean maximum contraction [1] [g],EC50 [2] [µM],Emax [2] [%],agonist character compared with noradrenaline ([2]; human LUT tissue),"mean further increase in tension ([1]; noradrenaline 160-210 μM added after the highest concentration of 2-[(5-chloro-2-methoxyphenyl)azo]-1H-imidazole, n=3) [g]"
COc1ccc(Cl)cc1N=Nc1ncc[nH]1 [2-[(5-chloro-2-methoxyphenyl)azo]-1H-imidazole],partial agonist,5.01,1.1 ± 0.7,2,62.5,full agonist,
"NC[C@H](O)c1ccc(O)c(O)c1 [Noradrenaline, noradrenaline, reference compound]",,0.661,4.22 ± 2.21,3.98,63.7 ± 4.8,,2.7 ± 0.9
